The record followed here is patent US8288374B2, “Medicinal composition containing benzo[a]phenoxazine compound as the active ingredient for prevention or treatment of protozoal disease” (Hoshi University, priority 2008, dated 2012).

In brackets after ≈: the same amount, converted by molar mass. Counter-ions that a name gives are not always drawn. Like-named read-outs stand apart in the source and are kept apart here.

For one series, the system named is Plasmodium falciparum K1. The experiment in a line: Chloroquine resistant-Plasmodium falciparum growth inhibition screening test. The series is classed as cell-based. The following applies: for Selective toxicity: EC50 against rat L6 cells / EC50 against P. falciparum K1; for EC50: Plasmodium falciparum, Table 2, unit inferred, chloroquine-resistant K1 strain, read-out: P. falciparum K1. The procedure: In the present experiment, protozoa of plasmodium falsiparum K1 strain was used. RPMI-1640 medium sterilized with a filter to which human serum was added to be 5%, was used in the experiment. Malarial parasites were cultured under 3% O2 concentration, 4% CO2 concentration, 93% N2 concentration, and at a temperature of 37° C.
The compounds of the present invention to be used in the present test and the positive control drug (chloroquine) were dissolved in DMSO to make a test solution of a predetermined concentration. Cultured malaria parasite infected-erythrocytes were collected by centrifugation, and diluted with non-infected erythrocyte so that the early infection rate was 0.15%. Hematocrit level at that time was 2.5%.
200 μL of malaria infected solution was added to wells of a 96-well culture plate, and adjusted by adding a test solution containing drug of a predetermined concentration or a drug-free DMSO. Test solutions were taken by duplicates.
[…] […] Radiation intensity was measured with a beta plate liquid scintillation counter (Wallac), and malarial parasite infection rates of the test solution added group and the control group were calculated.
Growth inhibition rate (%)={1−(b−a)/(c−a)}×100 • a: early infection rate • b: infection rate when test solution was added • c: infection rate of the control 3. Growth Inhibition Test of Rat L6 Cells
Antimalarial activity of a sample was estimated from EC50 values of the sample against chloroquine resistant-Plasmodium falciparum and rat L6 cells. […] It means that the larger the value of the selection toxity, the less the risk of the side effect is. Chemotherapy index=(EC50 value of a sample against rat L6 cells)/(EC50 value of a sample against chloroquine resistant-Plasmodium falsiparum)

A further series relates to Rat L6 cells. In words: Growth inhibition test of rat L6 cells. The series is classed as cell-based. The following applies: Table 2, unit inferred, 72 hours, read-out: Cytoxicity L6. How it is done:
Rat derived-L6 cells (rat skeletal myoblast cell) were used. A medium, RPMI1640 medium was supplemented so that L-glutamin (200 mM) is 1%, and fetal bovine serum 10%, and the medium was cultured under CO2 concentration 5%, at 37° C.
The compounds of the present invention and the control drugs to be used in the test were dissolved in DMSO, to make a test solution of a predetermined concentration.
Pre-culture was conducted and medium containing cells which have entered the logarithmic growth phase was taken to wells of a 96-well culture plate. Then, a test solution containing drug of a predetermined concentration or a drug-free DMSO was added. Test solutions were taken by duplicates.
Culture plate was cultured for 72 hours in an incubator, to test the growth inhibition activity. Test was conducted as follows. 10 μL of Alamar Blue aqueous solution was added to each well, and the resultant was further cultured for 2 hours. Next, the culture plate was placed on a fluorescent micro-plate reader (Spectramax Gemeni XS; US Molecular Device), radiated at an excited wavelength of 536 nm. Fluorescent intensity was measured at 588 nm, and residual rate of L6 cells of the test solution added group, and that of the control was calculated.
Growth inhibition rate (%)={(C−A)/(B−A)}×100 • A: Primary cell count • B: cell count of control, 3 days after • C: cell count of wells added with a sample, 3 days after 4. Determination of Drug Efficacy Against Chloroquine Resistant-Plasmodium

Series [1] relates to Plasmodium berghei NK65 strain. The experiment in a line: Cure test by oral administration to mice infected with malaria. It is filed as in vivo. The following applies: for inhibition in vivo at 100 mg/kg: Plasmodium berghei; for Effectiveness in the in vivo malaria test, in words: oral administration to mice infected with rodent malaria; for Days of survival: mean days to death minus that of control mice. How it is done:
In this experiment, rodent malaria parasites (the Plasmodium berghei NK65 strain) were used.
The infected blood to be used was subcultured in ICR female SPF mice infected by intraperitoneal or tail vein administration at 4 to 6 weeks old (20 to 26 g). […] Thereafter, based on the number of red cells (cells/ml) and the rate of infection by the protozoans, the blood was diluted with phys'iological saline such that a density of […] malaria parasites/1 ml dose was attained. This was used for infection of uninfected mice (ICR female mice, 5 weeks old) in an amount of 0.2 ml/20 g body weight, through the tail vein (Day-0). The compound used in the test was dissolved in 10% DMSO solution (a mixture of 1 ml of DMSO and 9 ml of 5% glucose solution).
Each group contained 4 mice, and the compound was orally administered to the mice 24 hours after their infection with malaria (Day-1), in an amount calculated such that 100 mg of the compound was administered per 1 kg of the body weight of a mouse. On the other hand, in terms of cases in which the amount was calculated such that 30 mg of the compound was administered per 1 kg of the body weight of a mouse, the oral administration was carried out a total of three times, that is, 24 hours (Day-1), 48 hours (Day-2) and 72 hours (Day-3) after the infection of malaria.
Blood was collected from the tails of each mouse 96 hours (Day-4) and 144 hours (Day-6) after the infection with malaria, and thin blood films were prepared. Under the microscope, the numbers of infection of malaria parasites in the group to which the compound was administered and the control group (to which the compound was not administered) were measured, and the rates of infection with malaria parasites (Parasitemia) were calculated.
From the rate of infection with malaria parasites calculated as above, the cure rate (Suppression) in the case of administration of the drug was calculated according to the following equation. Cure rate: Suppression (%)=(B−A)/B×100
A: Rate of infection with the protozoans in a mouse to which the present test compound was administered
B: Rate of infection with the parasites in a control mouse (to which the compound was not administered) Days of survival: MSD (day)=C−D
C: the average number of days from the date of infection with malaria to the date of death in the mice to which the present test compound was administered
D: The average number of days from the date of infection with malaria to the date of death in the 4 individuals of control mice (to which the compound was not administered)
Further, by observation of changes in the body weight, hair glossiness and the like of each mouse, side effects such as acute toxicity due to administration of the compound were evaluated.

[2] abbreviates: 96 h, oral, 100 mg/kg, 1 dose, infected ICR mice, suppression vs control, read-out: Cure rate (%) Day-4.
Setting [3] is: 144 h, oral, 100 mg/kg, 1 dose, infected ICR mice, suppression vs control, read-out: Cure rate (%) Day-6.
[4] abbreviates: po, 96 h, read-out: Cure rate (%) Day-4.
Where [5] appears, read: po, 144 h, read-out: Cure rate (%) Day-6.

The term melting point denotes the temperature of the solid-liquid transition.

In turn, `CCN(CCNS(C)(=O)=O)c1cc(C)c2nc3c4ccccc4c(=Nc4cccnc4)cc-3oc2c1` [Compound 1T, N-Ethyl-N-(2-methansulfonamidylethyl)-11-methyl-5-(pyridine-3-ylimino)-5H-benzo[a]phenoxazin-9-amine] displayed a Selective toxicity in the series on Plasmodium falciparum K1 of 2988. Further, the EC50 in the series with Plasmodium falciparum K1 was determined as 0.008 µg/mL (≈ 0.0159 µM); in the series with Rat L6 cells, 23.9 µg/mL (≈ 47.7 µM). In addition, the inhibition in vivo at 100 mg/kg in series [1] (setting [2]) came to 96.5%; in series [1] (setting [3]) it was 79.4%. Besides, the “Effectiveness in the in vivo malaria test, in words” value (“Effectiveness” below) in series [1] is listed as “excellent cure effects”. For the same compound, the “Days of survival” value in series [1] (oral, 100 mg/kg, 1 dose) came out at 13.3 days.
On to `CCCCN(CCCC)c1ccc2nc3c4ccccc4c(=Nc4ccncc4)cc-3oc2c1` [Compound 1E, N,N-Dibutyl-5-(pyridin-4-ylimino)-5H-benzo[a]phenoxazin-9-amine], for which the melting point fell in the range of 188 to 189 °C.
Still for that read-out and setting: under `CCN(CC)c1cc(C)c2c(c1)OC1=CC(Nc3ccccn3)c3ccccc3C1=N2` (stereo not drawn) (as salt: HCl) [Compound 1a, N,N-Diethyl-11-methyl-5-(pyridin-2-ylamino)-5H-benzo[a]phenoxazin-9-amine] stands 167.2 to 168.4 °C.
Turning to `CCN(CC)c1ccc2nc3c4ccccc4c(=O)cc-3oc2c1` [Nile red, reference compound], the inhibition in vivo at 100 mg/kg in series [1] (setting [2]) is 16%; in series [1] (setting [3]) it was 3%. The “Effectiveness” value in series [1] was “did not show effectiveness”. Further, in series [1] (oral, 100 mg/kg, 1 dose), the “Days of survival” value was 0 days.
Take `CCCN(CCC)c1ccc2nc3c4ccccc4c(=Nc4ccncc4)cc-3oc2c1` [Compound 1D, N,N-Dipropyl-5-(pyridin-4-ylimino)-5H-benzo[a]phenoxazin-9-amine]: the melting point fell in the range of 215 to 216 °C.
As for `CCOC(=O)C(Cc1ccc(O)cc1)N=c1cc2oc3cc(N(CC)CC)ccc3nc-2c2ccccc12` (stereo not drawn) [Compound 1Q, Ethyl 2-[9-(Diethylamino)-5H-benzo[a]phenoxazin-5-ylideneamino]-3-(4-hydroxyphenyl)propanoate], the melting point is 175 to 181 °C. In addition, in the series on Plasmodium falciparum K1, the Selective toxicity is 751 and the EC50 worked out at 0.045 µg/mL (≈ 0.0883 µM). Further, the EC50 in the series with Rat L6 cells was 33.8 µg/mL (≈ 66.3 µM).
Compound `CCN(CC)c1ccc2nc3c4ccccc4c(=Nc4cccnc4)cc-3oc2c1` [Compound 1N, N,N-Diethyl-5-(pyridin-3-ylimino)-5H-benzo[a]phenoxazin-9-amine] gave a Selective toxicity in the series with Plasmodium falciparum K1 of 5123. In addition, the EC50 was found to be 0.009 µg/mL (≈ 0.0228 µM) in the series on Plasmodium falciparum K1 and 46.1 µg/mL (≈ 117 µM) with Rat L6 cells. In addition, the values for the inhibition in vivo at 100 mg/kg in series [1] (setting [2]) and in series [1] (setting [3]) were 41% and 0%, respectively. Moreover, in series [1] (oral, 100 mg/kg, 1 dose), the “Days of survival” value is on record as 0 days.
As to `CCN(CC)c1cc(C)c2c(c1)OC1=CC(Nc3cccnc3)c3ccccc3C1=N2` (stereo not drawn) (as salt: HCl) [Compound 1b, N,N-Diethyl-11methyl-5-(pyridin-3-ylamino)-5H-benzo[a]phenoxazin-9-amine], the melting point fell in the range of 161.6 to 163.1 °C.
The same measure, in the same setting: the result for `c1ccc2c(=Nc3ccncc3)cc3oc4cc(N5CCCCC5)ccc4nc-3c2c1` [Compound 1f, 9-(Piperidin-1-yl)-5-(pyridin-4-ylimino)-5H-benzo[a]phenoxazine] reads 266.8 to 268.2 °C.
Turning to `CCN(CC)c1ccc2nc3c4ccccc4/c(=N\c4ccccc4)cc-3oc2c1` [Compound 1U, reference compound], the inhibition in vivo at 100 mg/kg is 0% in series [1] (setting [4]) and 16.8% in series [1] (setting [5]). In addition, the “Effectiveness” value in series [1] was “effectiveness was hardly observed”. In series [1] (oral, 100 mg/kg, 1 dose), the “Days of survival” value was determined as 0.8 days.
The compound `c1ccc2c(=Nc3ccncc3)cc3oc4cc(N5CCOCC5)ccc4nc-3c2c1` [Compound 1e, 9-Morpholino-5-(pyridin-4-ylimino)-5H-benzo[a]phenoxazine] came in with a melting point of over 300 °C.
The same measure, in the same setting: the result for `CCN(CC)c1ccc2nc3c4ccc(Br)cc4c(=Nc4ccccn4)cc-3oc2c1` [Compound 1F, 3-Bromo-N,N-diethyl-5-(pyridin-2-ylimino)-5H-benzo[a]phenoxazin-9-amine] reads 204 to 205 °C.
Regarding `c1ccc(/N=c2/cc3oc4cc(N5CCOCC5)ccc4nc-3c3ccccc23)nc1` [Compound 1O, N-(9-Morphlino-5H-benzo[a]phenoxazin-5-ylidene)pyridin-2-amine], in the series on Plasmodium falciparum K1, the Selective toxicity is on record as 1386. Moreover, the values for the EC50 in the series on Plasmodium falciparum K1 and in the series with Rat L6 cells were 0.015 µg/mL (≈ 0.0367 µM) and 20.8 µg/mL (≈ 50.9 µM), respectively. Also, the inhibition in vivo at 100 mg/kg was found to be 81% in series [1] (setting [2]) and 60% in series [1] (setting [3]). The “Days of survival” value in series [1] (oral, 100 mg/kg, 1 dose) is reported as 0.6 days.
On to `CCN(CC)c1cc(C)c2c(c1)OC1=CC(Nc3ccncc3)c3ccccc3C1=N2` (stereo not drawn) (as salt: HCl) [Compound 1c, N,N-Diethyl-11-methyl-5-(pyridin-4-ylamino)-5H-benzo[a]phenoxazin-9-amine], for which the melting point is over 300 °C.
On to `CCNc1cc2[o+]c3cc(NCC)c4ccccc4c3nc2cc1C` [Oxazin 170 perchlorate, reference compound], for which the inhibition in vivo at 100 mg/kg in series [1] (setting [2]) was found to be 40%; in series [1] (setting [3]), 57%. Further, in series [1], the “Effectiveness” value is “did not show effectiveness”. In addition, the “Days of survival” value in series [1] (oral, 100 mg/kg, 1 dose) came out at 1.3 days.
Take `CCN(CC)c1ccc2nc3c(cc(N)c4ccccc43)[o+]c2c1` [Nile blue A, reference compound]: the results for the inhibition in vivo at 100 mg/kg in series [1] (setting [2]) and in series [1] (setting [3]) were 15% and 5%, respectively. In series [1], the “Effectiveness” value was “did not show effectiveness”. Further, the “Days of survival” value in series [1] (oral, 100 mg/kg, 1 dose) was found to be 0.3 days.
Regarding `CCN(CC)c1ccc2nc3c4ccccc4/c(=N\c4ccc(C)cc4)cc-3oc2c1` [Compound 1V, reference compound], the inhibition in vivo at 100 mg/kg in series [1] (setting [4]) stood at 0%; in series [1] (setting [5]), 11.4%. For the same compound, the “Effectiveness” value in series [1] is “effectiveness was hardly observed”. Moreover, in series [1] (oral, 100 mg/kg, 1 dose), the “Days of survival” value amounted to 0.8 days.
